This passage reports IC50 results from BindingDB's records for doi:10.3109/14756366.2010.482529 (Yonsei University, 2010).

SMILES strings stand for the structures. pIC50: −log10 of the molar value.

For the test, the target named is T1, Polyphenol oxidase 1 (White button mushroom, UniProt Q00024).
T1 sequence (Q00024 whole entry): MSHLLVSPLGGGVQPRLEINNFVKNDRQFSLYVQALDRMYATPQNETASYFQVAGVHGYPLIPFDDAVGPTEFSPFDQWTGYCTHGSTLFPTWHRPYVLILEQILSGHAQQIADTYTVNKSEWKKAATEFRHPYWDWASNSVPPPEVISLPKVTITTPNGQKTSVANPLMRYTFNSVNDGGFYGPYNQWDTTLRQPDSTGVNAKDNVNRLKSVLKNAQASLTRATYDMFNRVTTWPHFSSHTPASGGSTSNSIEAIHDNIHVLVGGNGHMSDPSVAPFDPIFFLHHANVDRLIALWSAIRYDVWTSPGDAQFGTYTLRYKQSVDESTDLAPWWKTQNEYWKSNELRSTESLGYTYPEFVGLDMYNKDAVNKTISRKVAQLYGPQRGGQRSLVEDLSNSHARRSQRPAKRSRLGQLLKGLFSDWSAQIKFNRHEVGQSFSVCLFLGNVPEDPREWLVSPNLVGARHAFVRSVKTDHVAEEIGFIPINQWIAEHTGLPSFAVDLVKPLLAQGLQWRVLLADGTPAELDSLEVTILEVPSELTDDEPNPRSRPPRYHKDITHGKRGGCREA
The test can be described thus: In Vitro Tyrosinase Inhibition Assay. The note with it: pH 6.8; 25 °C. Here is the method:
Tyrosinase inhibition assays were performed in a 96-well microplate format using the SpectraMax 340 microplate reader (Molecular Devices, CA) according to the method developed by Hearing [Khan et al., Pure Appl. […] First the samples were screened for the o-diphenolase inhibitory activity of mushroom tyrosinase (Lyophilised, ≥2000 units/mg, Sigma, […], USA) using L-3,4-dihydroxyphenylalanine (L-DOPA) (Sigma) as substrate. All the active samples from the preliminary screening were subjected to half maximal inhibitory concentration (IC50) studies. The samples were dissolved in methanol/DMSO to a final concentration of 0.5%. […] Then the L-DOPA (0.5 mM) was added to the reaction mixture and the reaction was monitored by measuring the change in absorbance at 475 nm (at 37°C) due to the formation of the DOPA chrome for 10 min.
The pIC50 is the IC50 on a negative log10 scale, so that one unit is a factor of ten. Lower therefore signals a large IC50. In turn, `N[C@@H](Cn1ccc(=O)c(O)c1)C(=O)O` gave a pIC50 of 5.43.
`CC(C)=CCOC(=O)c1ccc(O)cc1` [3-Methyl-2-butenyl-4-hydroxybenzoate (2)] gave a pIC50 of 4.83.
Turning to `CC(C)=CCOC(=O)c1ccccc1` [3-Methyl-2-butenylbenzoate (1)], the pIC50 was 4.08.
In turn, `O=C(Oc1ccc([N+](=O)[O-])cc1)c1ccc([N+](=O)[O-])cc1C(F)(F)F` [4-Nitro-phenyl-(4-nitro-2-trifluoromethyl)-benzoate (6)] gave a pIC50 of 4.53.
With `O=C(NCCBr)c1cc([N+](=O)[O-])cc([N+](=O)[O-])c1` [N-(2-Bromo-ethyl)-3,5-dinitro-benzamide (8)] the figure was 5.51; with `O=C(NCCO)c1cc([N+](=O)[O-])cc([N+](=O)[O-])c1` [N-(2-Hydroxy-ethyl)-3,5-dinitro-benzamide (7)], 5.96; with `CCNC(=O)c1ccccc1` [N-Ethyl-benzamide (10)], 4.93.
In the case of `Cc1ccc(C(=O)N(C)O)cc1` [N-Hydroxy-4,N-dimethyl-benzamide (9)], the pIC50 is 5.68.
